pIC50: −log10 of the molar value.
Key:
[1] = target: p97 (Homo sapiens, UniProt P55072); assay: BioMol Green ATPase assay; assay type: biochemical; settings: 200 μM ATP, read-out: P97 Biomolgreen
From the text: Biomol Green (Enzo) is a […] from a biochemical reaction. Because of its high sensitivity, the assay is suitable for monitoring enzyme activities at very early substrate conversions requiring very low amount of enzymes. […] The assay procedure used may be the same as in Zhang et al., “Altered cofactor regulation with disease-associated p97/VCP mutations,” Proc. Natl. Acad. Sci. USA, 112(14), E1705-E1714 (2015).
The BioMol Green ATPase assay procedure used was that which was disclosed in Zhang, et al., “Altered cofactor regulation with disease-associated p97/VCP mutations,” Proc. Natl. Acad. Sci. USA, 112(14), E1705-E1714 (2015). The following Table IV provides relevant results. The compound number correlates to the numbered compounds in Table III. Compounds also show activity in a cell-based assay such as the ubiquitin assay (assay as described in, e.g., (1) Dantuma et al., “Short-lived green fluorescent proteins for quantifying ubiquitin/proteasome-dependent proteolysis in living cells,” Nat. Biotechnol. 2000, 18, 538-543; and (2) WO 2010003908).

p97, sequence (P55072 whole entry): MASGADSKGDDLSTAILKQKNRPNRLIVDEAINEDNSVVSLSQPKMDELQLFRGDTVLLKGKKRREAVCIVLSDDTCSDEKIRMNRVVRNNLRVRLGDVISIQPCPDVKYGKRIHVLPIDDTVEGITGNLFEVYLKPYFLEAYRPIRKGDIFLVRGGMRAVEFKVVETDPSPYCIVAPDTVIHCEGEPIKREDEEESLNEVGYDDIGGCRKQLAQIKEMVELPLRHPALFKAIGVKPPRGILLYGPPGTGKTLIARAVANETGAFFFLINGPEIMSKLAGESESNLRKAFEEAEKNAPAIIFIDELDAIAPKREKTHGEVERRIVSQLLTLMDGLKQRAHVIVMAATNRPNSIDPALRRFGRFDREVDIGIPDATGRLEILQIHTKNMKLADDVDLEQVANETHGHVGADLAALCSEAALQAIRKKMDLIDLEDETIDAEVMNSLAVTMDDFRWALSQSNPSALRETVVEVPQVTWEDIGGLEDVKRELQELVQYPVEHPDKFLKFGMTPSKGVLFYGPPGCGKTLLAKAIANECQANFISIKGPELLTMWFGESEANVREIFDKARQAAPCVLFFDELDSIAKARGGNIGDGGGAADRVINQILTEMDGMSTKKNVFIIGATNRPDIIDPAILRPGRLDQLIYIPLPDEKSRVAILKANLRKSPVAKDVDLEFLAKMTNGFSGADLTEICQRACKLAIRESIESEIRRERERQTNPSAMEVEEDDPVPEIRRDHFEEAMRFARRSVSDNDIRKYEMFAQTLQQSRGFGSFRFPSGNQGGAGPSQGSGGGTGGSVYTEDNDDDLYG

Q: With `Cc1cc(OCc2cnc(SC3C=CCCC3)n2-c2cccnc2)ccc1C#CCO` (stereo not shown) [Compound 1, 3-(4-((2-(Cyclohex-2-en-1-ylthio)-1-(pyridin-3-yl)-1H-imidazol-5-yl)methoxy)-2-methylphenyl)prop-2-yn-1-ol] as the compound, how does the pIC50 [1] read?
A: 7.43

Q: With `Cc1cc(OCc2cnc(SC3C=CCCC3)n2-c2cccnc2)ccc1C#CCOC(=O)NC1CCOCC1` (stereo not shown) [Compound 2] as the compound, how does the pIC50 [1] read?
A: 7.47

Q: With `COCCNC(=O)OCC#Cc1ccc(OCc2cnc(SC3C=CCCC3)n2-c2cccnc2)cc1C` (stereo not shown) [Compound 3] as the compound, how does the pIC50 [1] read?
A: 7.41

Q: With `Cc1cc(OCc2cnc(SC3C=CCCC3)n2-c2cccnc2)ccc1C#CCOC(=O)NCCN1CCOCC1` (stereo not shown) [Compound 4] as the compound, how does the pIC50 [1] read?
A: 7.44

Q: With `Cc1cc(OCc2cnc(SC(C)C)n2-c2cccnc2)ccc1C#CCOC(=O)NCCN1CCN(C(C)C)CC1` [Compound 5] as the compound, how does the pIC50 [1] read?
A: 7.00

Q: With `COCOCC#Cc1ccc(OCc2cnc(SC3C=CCCC3)n2-c2cccnc2)cc1C` (stereo not shown) [Compound 6] as the compound, how does the pIC50 [1] read?
A: 7.00

Q: With `COCCOCC#Cc1ccc(OCc2cnc(SC3C=CCCC3)n2-c2cccnc2)cc1C` (stereo not shown) [Compound 7] as the compound, how does the pIC50 [1] read?
A: 6.96

Q: With `CC(=O)NCC#Cc1ccc(OCc2cnc(SC3C=CCCC3)n2-c2cccnc2)cc1C` (stereo not shown) [Compound 8, N-(3-(4-((2-(Cyclohex-2-en-1-ylthio)-1-(pyridin-3-yl)-1H-imidazol-5-yl)methoxy)-2-methylphenyl)-prop-2-yn-1-yl)acetamide] as the compound, how does the pIC50 [1] read?
A: 7.22

Q: With `Cc1cc(OCc2cnc(SC3C=CCCC3)n2-c2cccnc2)ccc1C#CCNC1CCN(C)CC1` (stereo not shown) [Compound 9, N-(3-(4-((2-(cyclohex-2-en-1-ylthio)-1-(pyridin-3-yl)-1H-imidazol-5-yl)methoxy)-2-methylphenyl)prop-2-yn-1-yl)-1-methylpiperidin-4-amine] as the compound, how does the pIC50 [1] read?
A: 7.25

Q: With `Cc1cc(OCc2cnc(SC3C=CCCC3)n2-c2cccnc2)ccc1C#CCNCCN(C)C` (stereo not shown) [Compound 10] as the compound, how does the pIC50 [1] read?
A: 7.30

Q: With `Cc1cc(OCc2cnc(SC3C=CCCC3)n2-c2cccnc2)ccc1C#CCOC(=O)NCCN1CCN(C)CC1` (stereo not shown) [Compound 11] as the compound, how does the pIC50 [1] read?
A: 7.70

Q: With `Cc1cc(OCc2c(Br)nc(SC3C=CCCC3)n2-c2cccnc2)ccc1C#CCO` (stereo not shown) [Compound 12] as the compound, how does the pIC50 [1] read?
A: 7.30

Q: With `Cc1cc(OCc2c(Br)nc(SC3C=CCCC3)n2-c2cccnc2)ccc1C#CCOC(=O)NCCN1CCN(C(C)C)CC1` (stereo not shown) [Compound 13] as the compound, how does the pIC50 [1] read?
A: 7.49

Q: With `Cc1cc(OCc2cnc(SC3C=CCCC3)n2-c2cccnc2)ccc1C#CCOC(=O)NC(C)C` (stereo not shown) [Compound 14] as the compound, how does the pIC50 [1] read?
A: 7.57

Q: With `Cc1cc(OCc2cnc(SC3C=CCCC3)n2-c2cccnc2)ccc1C#CCOC(=O)NC1CCN(C)CC1` (stereo not shown) [Compound 15] as the compound, how does the pIC50 [1] read?
A: 7.85

Q: With `CCS(=O)(=O)c1ncc(COc2ccc(C#CCO)c(C)c2)n1-c1cccnc1` [Compound 16, 3-(4-((2-(Ethylsulfonyl)-1-(pyridin-3-yl)-1H-imidazol-5-yl)methoxy)-2-methylphenyl)prop-2-yn-1-ol] as the compound, how does the pIC50 [1] read?
A: < 5.17

Q: With `Cc1cc(OCc2cnc(SC3CC3)n2-c2cccnc2)ccc1C#CCO` [Compound 17] as the compound, how does the pIC50 [1] read?
A: 6.62

Q: With `Cc1cc(OCc2c(Cl)nc(SC3C=CCCC3)n2-c2cccnc2)ccc1C#CCO` (stereo not shown) [Compound 18] as the compound, how does the pIC50 [1] read?
A: 7.47

Q: With `Cc1cc(OCc2c(Br)nc(SC3CC3)n2-c2cccnc2)ccc1C#CCOC(=O)N1CCN(C(C)C)CC1` [Compound 19] as the compound, how does the pIC50 [1] read?
A: 7.24

Q: With `[2H]C1([2H])C([2H])([2H])C([2H])([2H])C([2H])(Sc2nc(Br)c(COc3ccc(C#CCO)c(C)c3)n2-c2cccnc2)C1([2H])[2H]` [Compound 20] as the compound, how does the pIC50 [1] read?
A: 7.54

Q: With `[2H]C1([2H])C([2H])([2H])C([2H])([2H])C([2H])(Sc2nc(Br)c(COc3ccc(C#CCOC(=O)NCCN4CCN(C(C)C)CC4)c(C)c3)n2-c2cccnc2)C1([2H])[2H]` [Compound 21] as the compound, how does the pIC50 [1] read?
A: 7.77

Q: With `Cc1cc(OCc2c(C#N)nc(SC3CCCC3)n2-c2cccnc2)ccc1C#CCO` [Compound 22] as the compound, how does the pIC50 [1] read?
A: 7.22

Q: With `Cc1cc(OCc2c(C#CCO)nc(SC3CCCC3)n2-c2cccnc2)ccc1C#CCO` [Compound 23, 3-(4-((2-(Cyclopentylthio)-4-(3-hydroxyprop-1-yn-1-yl)-1-(pyridin-3-yl)-1H-imidazol-5-yl)methoxy)-2-methylphenyl)prop-2-yn-1-ol] as the compound, how does the pIC50 [1] read?
A: 7.52

Q: With `CCOC(=O)c1nc(SC2CCCC2)n(-c2cccnc2)c1COc1ccc(C#CCO)c(C)c1` [Compound 24] as the compound, how does the pIC50 [1] read?
A: 7.30

Q: With `Cc1cc(OCc2c(C(N)=O)nc(SC3CCCC3)n2-c2cccnc2)ccc1C#CCO` [Compound 25] as the compound, how does the pIC50 [1] read?
A: 7.30

Q: With `Cc1cc(OCc2cnc(CC3CCCC3)n2-c2cccnc2)ccc1C#CCOC(=O)NC1CCN(C)CC1` [Compound 26] as the compound, how does the pIC50 [1] read?
A: 7.30

Q: With `COC(=O)/C=C/c1nc(SC2CCCC2)n(-c2cccnc2)c1COc1ccc(C#CCO)c(C)c1` [Compound 27, Methyl (E)-3-(2-(cyclopentylthio)-5-((4-(3-hydroxyprop-1-yn-1-yl)-3-methylphenoxy)methyl)-1-(pyridin-3-yl)-1H-imidazol-4-yl)acrylate] as the compound, how does the pIC50 [1] read?
A: 6.96

Q: Which results are given for `Cc1cc(OCc2c(C(C)(C)O)nc(SC3CCCC3)n2-c2cccnc2)ccc1C#CCO` [Compound 28, 3-(4-((2-(Cyclopentylthio)-4-(2-hydroxypropan-2-yl)-1-(pyridin-3-yl)-1H-imidazol-5-yl)methoxy)-2-methylphenyl)prop-2-yn-1-ol]?
A: melting point: 119 to 121 °C; pIC50 [1]: 6.60

Q: With `[2H]C1([2H])C([2H])([2H])C([2H])([2H])C([2H])(Sc2ncc(COc3ccc(-c4ccc(S(C)(=O)=O)cc4)c(C)c3)n2-c2cccnc2)C1([2H])[2H]` [Compound 29] as the compound, how does the pIC50 [1] read?
A: 7.12

Q: With `Cc1cc(OCc2c(Br)nc(SC3C=CCCC3)n2-c2cccnc2)ccc1-c1ccc(S(C)(=O)=O)cc1` (stereo not shown) [Compound 30] as the compound, how does the pIC50 [1] read?
A: 7.18

Q: With `Cc1cc(OCc2cnc(SC3C=CCCC3)n2-c2cccnc2)ccc1-c1ccc(S(C)(=O)=O)cc1` (stereo not shown) [Compound 31] as the compound, how does the pIC50 [1] read?
A: 7.27

Q: With `Cc1cc(OCc2c(Cl)nc(SC3C=CCCC3)n2-c2cccnc2)ccc1-c1ccc(S(C)(=O)=O)cc1` (stereo not shown) [Compound 32] as the compound, how does the pIC50 [1] read?
A: 7.43

Q: With `Fc1cc(OCc2cnc(SC3C=CCCC3)n2-c2cccnc2)ccc1Br` (stereo not shown) [Compound 33] as the compound, how does the pIC50 [1] read?
A: 6.89

Q: With `Cc1cc(OCc2cnc(SC3C=CCCC3)n2-c2cccnc2)ccc1Cl` (stereo not shown) [Compound 34] as the compound, how does the pIC50 [1] read?
A: 6.80

Q: With `[2H]C1([2H])C([2H])([2H])C([2H])([2H])C([2H])(Sc2ncc(COc3cc(F)c(C#CCOC(=O)NC4CCN(C)CC4)cc3F)n2-c2cccnc2)C1([2H])[2H]` [Compound 35] as the compound, how does the pIC50 [1] read?
A: 8.10

Q: With `CN1CCC(NC(=O)OCC#Cc2cc(F)c(OCc3cnc(SC4C=CCCC4)n3-c3cccnc3)cc2F)CC1` (stereo not shown) [Compound 36] as the compound, how does the pIC50 [1] read?
A: 7.96

Q: With `[2H]C1([2H])C([2H])([2H])C([2H])([2H])C([2H])(Sc2ncc(COc3ccc(C#CCOC(=O)NC4CCN(C)CC4)c(F)c3)n2-c2cccnc2)C1([2H])[2H]` [Compound 37, 3-(4-((2-((Cyclopentyl-d9)thio)-1-(pyridin-3-yl)-1H-imidazol-5-yl)methoxy)-2-fluorophenyl)prop-2-yn-1-yl (1-methylpiperidin-4-yl)carbamate] as the compound, how does the pIC50 [1] read?
A: 7.77

Q: With `[2H]C1([2H])C([2H])([2H])C([2H])([2H])C([2H])(Sc2ncc(COc3cc(F)c(C#CCO)cc3F)n2-c2cccnc2)C1([2H])[2H]` [Compound 38] as the compound, how does the pIC50 [1] read?
A: 7.72

Q: With `[2H]C1([2H])C([2H])([2H])C([2H])([2H])C([2H])(Sc2ncc(COc3cc(F)c(C#CCOC(=O)NC4CCN(C)CC4)c(F)c3)n2-c2cccnc2)C1([2H])[2H]` [Compound 39] as the compound, how does the pIC50 [1] read?
A: 7.72

Q: With `CC#Cc1nc(SC2CCCC2)n(-c2cccnc2)c1COc1cc(F)c(C#CCOC(=O)NC2CCN(C)CC2)c(F)c1` [Compound 40] as the compound, how does the pIC50 [1] read?
A: 7.70

Q: With `CC#Cc1nc(SC2CCCC2)n(-c2cccnc2)c1COc1cc(F)c(C#CCO)c(F)c1` [Compound 41] as the compound, how does the pIC50 [1] read?
A: 7.40

Q: With `OCC#Cc1c(F)cc(OCc2c(Cl)nc(SC3C=CCCC3)n2-c2cccnc2)cc1F` (stereo not shown) [Compound 42] as the compound, how does the pIC50 [1] read?
A: 7.34

Q: With `[2H]C1([2H])C([2H])([2H])C([2H])([2H])C([2H])(Sc2ncc(COc3cc(F)c(C#CCO)c(F)c3)n2-c2cccnc2)C1([2H])[2H]` [Compound 43] as the compound, how does the pIC50 [1] read?
A: 7.25

Q: With `[2H]C1([2H])C([2H])([2H])C([2H])([2H])C([2H])(Sc2ncc(COc3cc(Cl)c(C#CCOC(=O)NC4CCN(C)CC4)cc3Cl)n2-c2cccnc2)C1([2H])[2H]` [Compound 44] as the compound, how does the pIC50 [1] read?
A: 7.22

Q: With `[2H]C1([2H])C([2H])([2H])C([2H])([2H])C([2H])(Sc2ncc(COc3cc(Cl)c(C#CCO)cc3Cl)n2-c2cccnc2)C1([2H])[2H]` [Compound 45] as the compound, how does the pIC50 [1] read?
A: 6.70

Reference: patent US11773075B2, “Modulators of p97 AAA ATPase activity” (University of Pittsburgh—Of the Commonwealth System of …, priority 2017, dated 2023)
